This note sets out measurements from paper PMC7846937 (Bioorganic chemistry, 2020).

Targets include hCA I (Homo sapiens, UniProt P00915); hCA II (Homo sapiens, UniProt P00918); hCA XII (Homo sapiens, UniProt O43570).
Common to all, as to assay: stopped-flow CO2 hydration assay
What all share (assay type): biochemical

hCA I, sequence (P00915 2-261): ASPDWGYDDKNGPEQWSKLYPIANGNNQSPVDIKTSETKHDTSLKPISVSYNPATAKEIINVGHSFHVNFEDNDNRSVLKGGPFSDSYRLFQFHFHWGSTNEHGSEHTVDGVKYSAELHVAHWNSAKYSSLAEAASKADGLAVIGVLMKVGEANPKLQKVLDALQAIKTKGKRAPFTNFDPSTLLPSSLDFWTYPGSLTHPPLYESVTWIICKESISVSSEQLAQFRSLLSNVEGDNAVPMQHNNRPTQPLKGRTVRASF
hCA XII, sequence (O43570 30-289 limits assumed): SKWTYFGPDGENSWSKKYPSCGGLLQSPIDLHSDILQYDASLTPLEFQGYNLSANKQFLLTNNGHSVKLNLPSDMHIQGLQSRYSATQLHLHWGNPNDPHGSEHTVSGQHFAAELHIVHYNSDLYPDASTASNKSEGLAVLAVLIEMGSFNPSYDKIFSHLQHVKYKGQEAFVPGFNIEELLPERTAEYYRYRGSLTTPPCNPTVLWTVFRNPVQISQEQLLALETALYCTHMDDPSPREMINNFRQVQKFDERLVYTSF

As a reminder, the Ki is the dissociation constant of the complex between target and ligand, obtained from inhibition or displacement. As to `Cc1cc(C)[n+](-c2cccc(S(N)(=O)=O)c2)c(C)c1` [19a, 2,4,6-Trimethyl-1-(3-sulfamoylphenyl)pyridinium hexafluorophosphate], the Ki on hCA I is 82.1 nM.

Take `CCc1cc(C)cc(CC)[n+]1-c1cccc(S(N)(=O)=O)c1` [19b, 2,6-Diethyl-4-methyl-1-(3-sulfamoylphenyl)pyridinium hexafluorophosphate]: the Ki turned out to be 8.5 nM on hCA II, 86.3 nM on hCA I and 4 nM at hCA XII.

Take `CCCc1cc(C)cc(CCC)[n+]1-c1cccc(S(N)(=O)=O)c1` [19c, 4-Methyl-2,6-di-n-propyl-1-(3-sulfamoylphenyl)pyridinium hexafluorophosphate]: the Ki is 7.8 nM at hCA II, 84.5 nM on hCA I and 3.6 nM on hCA XII.

As for `Cc1cc(C(C)C)[n+](-c2cccc(S(N)(=O)=O)c2)c(C(C)C)c1` [19d, 2,6-Diisopropyl-4-methyl-1-(3-sulfamoylphenyl)pyridinium hexafluorophosphate], the Ki on hCA II is 9.6 nM; on hCA I, 33.8 nM; on hCA XII, 5.5 nM.

For `CCCCc1cc(C)cc(CCCC)[n+]1-c1cccc(S(N)(=O)=O)c1` [19e, 2,6-Di-n-butyl-4-methyl-1-(3-sulfamoylphenyl)pyridinium hexafluorophosphate], the values for the Ki at hCA II, at hCA I and at hCA XII were 58.1 nM, 462 nM and 51.5 nM, respectively.

In the case of `CCc1cc(C)cc(C)[n+]1-c1cccc(S(N)(=O)=O)c1` [19f, 2-Ethyl-4,6-dimethyl-1-(3-sulfamoylphenyl)pyridinium hexafluorophosphate], the inhibitory constant (Ki) worked out at 12.9 nM at hCA II, 63.6 nM on hCA I and 3.7 nM on hCA XII.

Take `CCCc1cc(C)cc(C)[n+]1-c1cccc(S(N)(=O)=O)c1` [19g, 2,4-Dimethyl-6-n-propyl-1-(3-sulfamoylphenyl)pyridinium hexafluorophosphate]: the Ki at hCA II was 7.2 nM; at hCA I it was 70.1 nM; on hCA XII, 5.4 nM.

As to `Cc1cc(C)[n+](-c2cccc(S(N)(=O)=O)c2)c(C(C)C)c1` [19h, 2-Isopropyl-4,6-dimethyl-1-(3-sulfamoylphenyl)pyridinium hexafluorophosphate], the figures for the Ki at hCA II, on hCA I and on hCA XII were 10.4 nM, 60.7 nM and 7.4 nM, respectively.

With `CCCCc1cc(C)cc(C)[n+]1-c1cccc(S(N)(=O)=O)c1` [19i, 2-n-Butyl-4,6-dimethyl-1-(3-sulfamoylphenyl)pyridinium hexafluorophosphate], the figures for the Ki at hCA II, at hCA I and at hCA XII were 6.8 nM, 65.1 nM and 4 nM, respectively.

On to `Cc1cc(-c2ccccc2)cc(C)[n+]1-c1cccc(S(N)(=O)=O)c1` [19j, 2,6-Dimethyl-4-phenyl-1-(3-sulfamoyl-phenyl)-pyridinium hexafluorophosphate], for which the Ki came to 1.2 nM at hCA II, 65.3 nM at hCA I and 0.87 nM on hCA XII.

For the molecule `CCc1cc(-c2ccccc2)cc(CC)[n+]1-c1cccc(S(N)(=O)=O)c1` [19k, 2,6-Diethyl-4-phenyl-1-(3-sulfamoyl-phenyl)-pyridinium hexafluorophosphate], the Ki was 10.2 nM on hCA II, 71.6 nM at hCA I and 12.1 nM at hCA XII.

For the molecule `CCCc1cc(-c2ccccc2)cc(CCC)[n+]1-c1cccc(S(N)(=O)=O)c1` [19l, 2,6-Di-n-propyl-4-phenyl-1-(3-sulfamoyl-phenyl)-pyridinium hexafluorophosphate], the Ki worked out at 18 nM at hCA II, 75.8 nM at hCA I and 21.5 nM on hCA XII.

With `CC(C)c1cc(-c2ccccc2)cc(C(C)C)[n+]1-c1cccc(S(N)(=O)=O)c1` [19m, 2,6-Diisopropyl-4-phenyl-1-(3-sulfamoylphenyl)pyridinium hexafluorophosphate], the Ki at hCA II came to 9.3 nM; at hCA I it was 41.8 nM; on hCA XII, 5.8 nM.

`CCCCc1cc(-c2ccccc2)cc(CCCC)[n+]1-c1cccc(S(N)(=O)=O)c1` [19n, 2,6-Di-n-butyl-4-phenyl-1-(3-sulfamoyl-phenyl)-pyridinium hexafluorophosphate]: the Ki on hCA II was determined as 49.3 nM; at hCA I, 433 nM; at hCA XII, 40.2 nM.

With `Cc1cc(-c2ccccc2)cc(-c2ccccc2)[n+]1-c1cccc(S(N)(=O)=O)c1` [19o, 2-Methyl-4,6-diphenyl-1-(3-sulfamoyl-phenyl)-pyridinium hexafluorophosphate], the values for the Ki on hCA II, on hCA I and on hCA XII were 3.4 nM, 8.5 nM and 0.96 nM, respectively.

Regarding `CCc1cc(-c2ccccc2)cc(-c2ccccc2)[n+]1-c1cccc(S(N)(=O)=O)c1` [19p, 2-Ethyl-4,6-diphenyl-1-(3-sulfamoyl-phenyl)-pyridinium hexafluorophosphate], the Ki came to 4 nM on hCA II, 18 nM at hCA I and 1.4 nM on hCA XII.

For `CCCCc1cc(-c2ccccc2)cc(-c2ccccc2)[n+]1-c1cccc(S(N)(=O)=O)c1` [19s, 2-n-Butyl-4,6-diphenyl-1-(3-sulfamoyl-phenyl)-pyridinium hexafluorophosphate], the Ki at hCA II amounted to 43.9 nM; at hCA I it was 137 nM; at hCA XII it was 35.2 nM.

As to `Cc1cc(C)[n+](-c2cccc(S(N)(=O)=O)c2)c(C)c1C` [19t, 2,3,4,6-Tetramethyl-1-(3-sulfamoylphenyl)pyridinium hexafluorophosphate], the Ki at hCA II was determined as 2.6 nM; on hCA I, 54.9 nM; at hCA XII it was 3.4 nM.

As to `Cc1c2cc(c(C)[n+]1-c1cccc(S(N)(=O)=O)c1)CCCCCCCCC2` [19u, 2,6-Dimethyl-3,5-(1,9-nonane-diyl)-1-(3-sulfamoyl-phenyl)pyridinium hexafluorophosphate], the Ki on hCA II stood at 39.8 nM; on hCA I it was 256 nM; at hCA XII it was 25.1 nM.

Take `Cc1cc(C)[n+](-c2cccc(S(N)(=O)=O)c2)c(-c2ccccc2)c1` [19v, 2,4-Dimethyl-6-phenyl-1-(3-sulfamoylphenyl)pyridinium hexafluorophosphate]: the Ki came to 8.8 nM on hCA II, 72.3 nM on hCA I and 4.7 nM on hCA XII.

Turning to `Cc1cc(-c2ccccc2)[n+](-c2cccc(S(N)(=O)=O)c2)c(-c2ccccc2)c1` [19w, 4-Methyl-2,6-diphenyl-1-(3-sulfamoylphenyl)pyridinium hexafluorophosphate], the Ki on hCA II came out at 6.7 nM; at hCA I it was 19.7 nM; on hCA XII, 8.8 nM.

As for `NS(=O)(=O)c1cccc(-[n+]2c(-c3ccccc3)cc(-c3ccccc3)cc2-c2ccccc2)c1` [19x, 2,4,6-Triphenyl-1-(3-sulfamoylphenyl)pyridinium hexafluorophosphate], the Ki on hCA II stood at 13 nM; on hCA I it was 58 nM; at hCA XII it was 21.7 nM.
